# Source: article PMC5478271, “Chemical structure-guided design of dynapyrazoles, cell-permeable dynein inhibitors with a unique mode of action” (eLife, 2017)
# Assays:
# CAD cells = test: Lysosome motility assay in CAD cell neurites (LysoTracker); format: cell-based, murine; details: for Percentage of retrograde-directed lysosomes moving slower than 25 nm/s: 60 min; for Average track length of moving particles (lysosomes): 1 min imaging, control 32 ± 11 µm
# Excerpt: This bidirectional transport of lysosomes requires kinesins and dynein 1 and can be observed by imaging live cells stained with the LysoTracker dye ([Vale, 2003]; [Pu et al., 2016]). A coupling between anterograde and retrograde motion has been described for membrane-bound organelles, with disruption of dynein-driven motion blocking bi-directional organelle motility ([Barlan et al., 2013]). We imaged control solvent (0.1% DMSO) treated cells and observed bidirectional motion of LysoTracker-labelled puncta (Figure 5E,H,K, Video 5). Overlays of successive images from a time-lapse series, color-coded for displacement, reveal organelle displacements (Figure 5H–J). […] Treatment with dynapyrazole-A suppressed bidirectional motion. In particular, the percentage of retrograde-directed lysosomes moving slower than 25 nm/s increased to ~47% (3.5µM) and ~59% (5µM) while the proportion of lysosomes moving at speeds > 250 nm/s decreased to below 10% (Figure 5N). We observed equivalent effects of dynapyrazole-A on anterograde motion velocities (kymographs in Figure 5K,L and M). In control cells, lysosomes with measureable displacements had trajectories that averaged 32 ± 11 µm (Figure 5O). Dynapyrazole-A (3.5 µM, Figure 5I and L) reduced the average track length of moving particles to 15.7 ± 4.7 µm, which can be seen as white punctae that result from the overlay of multiple color-coded frames without particle translocation. A higher dose of dynapyrazole-A 5 µM) shortened the average track length of moving particles to 6.7 ± 2.7 µm (Figure 5J,M,O). […] Higher concentrations of dynapyrazole-A (15 µM) lowered intracellular ATP levels by ~70% at 3 hr (Figure 5—figure supplement 5).
# CAD cells (catecholaminergic neuronal tumor cell line, RRID:CVCL_0199) were maintained in DMEM/F12 medium with 10% Fetal Bovine Serum ([Qi et al., 1997]). Cell line identity was confirmed by the morphological response to serum withdrawal (i.e. neurite formation), a previously-documented characteristic of this cell line ([Qi et al., 1997]). 24 hr before the experiment cells were plated on coverslips in serum-free medium to induce neurite formation. Cells were treated with inhibitors or control solvent (0.1% DMSO final in all experiments) for 60 min, then lysosomes were labeled with 0.1 µM (final concentration) LysoTracker Red DND-99 (Molecular Probes) and used for microscopy immediately after LysoTracker addition.
# Microscopy was performed using a Nikon TE-2000 inverted microscope equipped with a LED X-Cite illuminator (Lumen Dynamics) at 37 degrees. Images were acquired with a Hamamatsu ORCA-Flash 4.0 camera driven by MetaMorph software at a rate of 1 frame per second for 1 min. Lysosome motility in neurites was analyzed using Diatrack software (http://www.diatrack.org/), particle velocities were measured from frame to frame and the total length of trajectories divided by the number of analyzed organelles was calculated for every experimental condition.
# His-dynein 1 = target: T1, His-dynein 1 (Homo sapiens, UniProt Q14204); test: Ultraviolet light and ADP-vanadate-dependent photocleavage of dynein; format: biochemical; details: 4 µM compound
# T1 construct: (wild-type, K1912A, K2601A, AA 1320–4646, uniprot: Q14204); made in house; host or cells: Sf9 insect cells (baculovirus)
# Method: Thirty-microliter reactions were prepared in 96-well plates as follows. ATPase buffer was supplemented with concentrated stocks of His-dynein 1 (90nM final), compound 8 (4µM final) or an equivalent amount of solvent carrier (3.3% DMSO), followed by a 10 min incubation at room temperature. ATP (0.1 mM final) was added and the mixtures were incubated 5 min at room temperature. NaVO3 (0.1 mM final) was added and the mixtures were again incubated 5 min at room temperature. Vanadate was deliberately omitted from one well. The plate was then transferred to ice and irradiated with 365 nm light for 15 min with the lamp positioned 10 cm above the plate(Spectroline Maxima ML-3500S lamp). Following addition of SDS-PAGE loading buffer and heating (95°, 5 min), individual reactions were resolved on hand-poured 8% tris-glycine polyacrylamide gels. Gels were stained (Coomassie blue), imaged using a Li-Cor Odyssey, and band intensities were analyzed using FIJI.
# Quantification of ADP-vanadate dependent photocleavage of dynein was performed as follows: Scanned gels were analyzed with FIJI, and fraction cleaved quantified as follows:
# Fraction cleaved = (intensity of band at 250 kDa) /
# (intensity of band at 250 kDa + intensity of band at ~350 kDa)
# T1 sequence (Q14204 1320-4646): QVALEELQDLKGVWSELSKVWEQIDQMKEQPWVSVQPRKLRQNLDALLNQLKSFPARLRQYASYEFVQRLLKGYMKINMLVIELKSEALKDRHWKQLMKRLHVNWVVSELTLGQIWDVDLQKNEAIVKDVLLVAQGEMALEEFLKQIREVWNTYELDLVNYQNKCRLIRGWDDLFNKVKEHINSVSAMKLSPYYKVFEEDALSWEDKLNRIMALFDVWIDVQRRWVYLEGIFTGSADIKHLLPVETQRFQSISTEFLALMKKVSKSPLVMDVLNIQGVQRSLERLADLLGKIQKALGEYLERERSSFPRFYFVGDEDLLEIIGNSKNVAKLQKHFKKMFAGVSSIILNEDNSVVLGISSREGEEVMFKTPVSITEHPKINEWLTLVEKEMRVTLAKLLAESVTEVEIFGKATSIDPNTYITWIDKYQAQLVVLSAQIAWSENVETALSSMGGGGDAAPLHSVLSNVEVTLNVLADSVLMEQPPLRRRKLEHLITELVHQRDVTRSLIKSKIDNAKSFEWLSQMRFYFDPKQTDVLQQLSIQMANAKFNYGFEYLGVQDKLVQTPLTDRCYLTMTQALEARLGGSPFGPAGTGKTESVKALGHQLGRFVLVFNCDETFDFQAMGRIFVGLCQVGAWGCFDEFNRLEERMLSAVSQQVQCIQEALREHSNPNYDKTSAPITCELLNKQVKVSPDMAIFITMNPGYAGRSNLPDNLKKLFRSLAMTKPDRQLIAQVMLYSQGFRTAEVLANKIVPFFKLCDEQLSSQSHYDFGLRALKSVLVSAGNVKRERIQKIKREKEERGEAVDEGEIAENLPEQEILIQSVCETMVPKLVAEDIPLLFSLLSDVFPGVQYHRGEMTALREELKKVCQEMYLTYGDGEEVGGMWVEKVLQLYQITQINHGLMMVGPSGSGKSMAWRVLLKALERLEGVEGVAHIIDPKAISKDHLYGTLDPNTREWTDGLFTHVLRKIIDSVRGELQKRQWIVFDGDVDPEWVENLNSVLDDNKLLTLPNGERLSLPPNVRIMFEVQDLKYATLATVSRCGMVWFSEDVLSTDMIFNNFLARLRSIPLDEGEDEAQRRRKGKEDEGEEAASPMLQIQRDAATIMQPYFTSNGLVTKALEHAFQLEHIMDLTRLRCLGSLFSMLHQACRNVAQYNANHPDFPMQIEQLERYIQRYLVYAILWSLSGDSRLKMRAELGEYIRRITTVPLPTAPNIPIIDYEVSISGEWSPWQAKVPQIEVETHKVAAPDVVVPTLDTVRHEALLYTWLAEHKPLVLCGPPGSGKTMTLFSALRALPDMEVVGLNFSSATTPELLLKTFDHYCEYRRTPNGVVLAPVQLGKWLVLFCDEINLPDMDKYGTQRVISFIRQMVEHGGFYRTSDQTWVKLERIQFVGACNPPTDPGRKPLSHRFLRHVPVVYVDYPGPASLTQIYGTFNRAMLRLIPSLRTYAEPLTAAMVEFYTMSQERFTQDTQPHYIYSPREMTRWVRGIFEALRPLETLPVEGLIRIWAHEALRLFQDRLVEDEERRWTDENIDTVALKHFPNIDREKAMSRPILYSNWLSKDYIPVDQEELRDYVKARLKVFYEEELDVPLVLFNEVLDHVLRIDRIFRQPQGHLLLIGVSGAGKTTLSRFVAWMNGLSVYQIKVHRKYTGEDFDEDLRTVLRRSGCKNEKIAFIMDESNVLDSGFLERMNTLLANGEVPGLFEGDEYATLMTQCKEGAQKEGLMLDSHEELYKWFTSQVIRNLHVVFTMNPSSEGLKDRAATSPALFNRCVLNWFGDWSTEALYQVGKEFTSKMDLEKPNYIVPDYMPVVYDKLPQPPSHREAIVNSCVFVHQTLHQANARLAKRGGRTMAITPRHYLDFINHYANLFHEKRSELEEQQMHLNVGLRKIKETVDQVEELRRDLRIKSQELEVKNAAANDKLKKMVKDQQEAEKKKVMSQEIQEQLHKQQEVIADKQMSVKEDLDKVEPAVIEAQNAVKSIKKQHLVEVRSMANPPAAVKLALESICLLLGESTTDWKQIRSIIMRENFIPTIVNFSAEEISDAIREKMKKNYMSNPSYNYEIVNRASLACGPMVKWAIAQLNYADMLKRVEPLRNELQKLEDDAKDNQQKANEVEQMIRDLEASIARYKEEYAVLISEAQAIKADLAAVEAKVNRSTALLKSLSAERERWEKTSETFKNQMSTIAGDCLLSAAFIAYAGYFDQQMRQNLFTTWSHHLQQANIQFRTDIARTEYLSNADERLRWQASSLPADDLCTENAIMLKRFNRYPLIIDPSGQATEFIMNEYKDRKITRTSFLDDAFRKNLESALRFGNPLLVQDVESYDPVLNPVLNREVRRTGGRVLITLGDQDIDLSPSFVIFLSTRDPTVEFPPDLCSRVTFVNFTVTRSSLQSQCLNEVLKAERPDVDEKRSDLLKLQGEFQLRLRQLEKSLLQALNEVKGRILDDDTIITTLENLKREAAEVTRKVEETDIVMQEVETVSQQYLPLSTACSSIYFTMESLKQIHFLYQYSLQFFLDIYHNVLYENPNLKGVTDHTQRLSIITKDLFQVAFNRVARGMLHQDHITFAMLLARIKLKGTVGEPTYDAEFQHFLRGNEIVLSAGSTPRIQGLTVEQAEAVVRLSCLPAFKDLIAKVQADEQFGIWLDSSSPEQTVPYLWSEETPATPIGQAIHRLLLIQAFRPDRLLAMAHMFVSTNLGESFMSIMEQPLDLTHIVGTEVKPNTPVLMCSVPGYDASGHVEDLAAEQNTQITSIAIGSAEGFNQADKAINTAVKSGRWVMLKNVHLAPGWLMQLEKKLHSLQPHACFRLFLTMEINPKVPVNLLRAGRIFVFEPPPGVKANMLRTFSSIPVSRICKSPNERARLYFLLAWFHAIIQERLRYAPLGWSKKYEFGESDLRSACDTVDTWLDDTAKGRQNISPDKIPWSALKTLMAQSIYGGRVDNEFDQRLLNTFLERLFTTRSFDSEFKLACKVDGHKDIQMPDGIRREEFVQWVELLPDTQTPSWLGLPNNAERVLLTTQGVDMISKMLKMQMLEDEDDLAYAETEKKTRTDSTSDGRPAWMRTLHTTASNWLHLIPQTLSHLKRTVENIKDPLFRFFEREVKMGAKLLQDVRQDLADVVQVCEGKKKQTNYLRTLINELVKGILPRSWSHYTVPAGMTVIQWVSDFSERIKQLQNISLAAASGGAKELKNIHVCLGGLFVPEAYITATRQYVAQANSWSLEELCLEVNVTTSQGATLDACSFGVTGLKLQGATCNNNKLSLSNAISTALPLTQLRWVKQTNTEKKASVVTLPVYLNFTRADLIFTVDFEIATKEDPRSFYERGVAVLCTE
smiles,measurement,setting,value
"N#Cc1c(C2(c3ccc(Cl)cc3)CC2)nn2c1[nH]c(=O)c1cc(I)ccc12 [Compound 8, 2-[1-(4-chlorophenyl)cyclopropyl]-7-iodo-5-oxo-4H-pyrazolo[1,5-a]quinazoline-3-carbonitrile]",Proportion of lysosomes moving at speeds > 250 nm/s,"CAD cells; 3.5 µM and 5 µM, control ~20%",below 10%
same,Percentage of retrograde-directed lysosomes moving slower than 25 nm/s,"CAD cells; 3.5 µM, control ~20%",~ 47%
same,Average track length of moving particles (lysosomes),CAD cells; 3.5 µM,15.7 ± 4.7 µm
same,Percentage of retrograde-directed lysosomes moving slower than 25 nm/s,"CAD cells; 5 µM, control ~20%",~ 59%
same,Average track length of moving particles (lysosomes),CAD cells; 5 µM,6.7 ± 2.7 µm
same,Reduction of ADP-vanadate dependent photocleavage relative to controls,His-dynein 1,~ 2.5 fold
same,ADP-vanadate dependent photocleavage of His-dynein 1,"His-dynein 1; 100 µM ATP, 100 µM vanadate, control 42 ± 3%",17 ± 2%
